Where “and” joins values, the source holds several entries; their conditions need not be identical. Equal values may be shown once. Entries after “also recorded” stand apart in the source; their conditions may differ. Read-outs that look alike come from different tables or passages of the source.
How the values were obtained:
hTRPML1∆NC-YFP [1] = type: cell-based, human
Description: (§1) To identify inhibitors of TRPML1 and TRPML3, the Spectrum Collection compound library (MS Discoveries; 2000 compounds) and additional 430 bioactive compounds were screened. To this end, fluorometric Ca^2+ influx assays were performed by using the calcium dye Fluo-4/AM (Invitrogen, Thermo Fisher Scientific, Waltham, MA, USA) and a custom-made fluorescence imaging plate reader built into a robotic liquid handling station (Freedom Evo 150, Tecan, Männedorf, Switzerland). […] Screening compounds dissolved in DMSO (10 mM) were prediluted in 150 mM NaCl, 20 mM HEPES, pH 7.4, to a concentration of 200 µM. For primary screens, HEK293 stably expressing plasma membrane-targeted TRPML1 or TRPML3 were trypsinized and resuspended in cell culture medium supplemented with 4 µM Fluo-4/AM. After incubation at 37 °C for 30 min, the cell suspension was briefly centrifuged resuspended in HBS, and dispensed into black pigmented, clear-bottom 384-well microwell plates (Greiner μClear, Frickenhausen, Germany). Plates were placed into the FLIPR and fluorescence signals (excitation 470 nm, emission 515 nm) were recorded with a Zyla 5.5 camera (Andor, Belfast, UK) and the μManager software like previously described. In a first video, compound libraries were successively added to the cells with the Tecan 96-tip multichannel arm to a final concentration of 20 µM to map unspecific effects like autofluorescence or toxicity. In a second step the agonist ML-SA1 was pipetted in each well and fluorescence signals were recorded for 10 min. Analyses were done by calculating fluorescence intensities for each well and background areas with ImageJ (National Institutes of Health, Bethesda, MD, USA). Finally, the background was subtracted and the fluorescence intensities were normalized to initial intensities (F/F0). Concentration response curves were generated by the same procedure but compounds were manually prediluted in 96-well plates containing HBS, now supplemented with 0.1% bovine serum albumin. Here data was fitted to a four-parameter Hill equation to obtain Imin, Imax, IC50), and the Hill coefficient n.

hTRPML1∆NC-YFP [2] = biological target: T1, hTRPML1∆NC-YFP (Homo sapiens, UniProt Q9GZU1); type: cell-based; conditions: for IC50: read-out: TRPML1 IC50, Fluo-4, 5 µM ML-SA1, Fig. 2a/4, Table S1
Description: as §1

human ERα = biological target: T2, human ERα (Homo sapiens, UniProt P03372); experiment: Yeast estrogen receptor assay (YES-assay), Saccharomyces cerevisiae transfected with human ERα, lacZ reporter; type: cell-based; conditions: 0.01-100 µM, 48 h
T2 construct: host or cells: Saccharomyces cerevisiae
Description: The yeast estrogen receptor assay (YES-assay) was provided by Dr. J.P. Sumpter (Brunel University, Uxbridge, UK; Routledge & Sumpter, 1996) and was used to determine the relative transactivation activity of the human ERα in response to test substances as previously described. Briefly, Saccharomyces cerevisiae stably transfected with a human ERα construct and an estrogen responsive element fused to the reporter gene lacZ encoding for β-galactosidase were treated with the test substances for 48 h. The β-galactosidase enzymatic activity was measured in a colorimetric assay using the substrate chlorophenol red β-D-galactopyranoside (Roche Diagnostics, Mannheim Germany). Formation of chlorophenol red was measured at 540 nm. For the test, all compounds were diluted in DMSO. 17β-estradiol (10 nM; Sigma, Deisenhofen, Germany) served as positive control and DMSO was used as vehicle control. All compounds, were dose dependently tested in a concentration range of 0.01–100 µM, using technical quadruplicates and biological triplicates.

hTRPML2-YFP = biological target: T3, hTRPML2-YFP (Homo sapiens, UniProt Q8IZK6); experiment: Fluo-4 Ca2+ influx assay, HEK293 stably expressing hTRPML2-YFP, activated with ML-SA1; type: cell-based
T3 construct: expressed in transfected cells
T3 sequence (Q8IZK6 1-566): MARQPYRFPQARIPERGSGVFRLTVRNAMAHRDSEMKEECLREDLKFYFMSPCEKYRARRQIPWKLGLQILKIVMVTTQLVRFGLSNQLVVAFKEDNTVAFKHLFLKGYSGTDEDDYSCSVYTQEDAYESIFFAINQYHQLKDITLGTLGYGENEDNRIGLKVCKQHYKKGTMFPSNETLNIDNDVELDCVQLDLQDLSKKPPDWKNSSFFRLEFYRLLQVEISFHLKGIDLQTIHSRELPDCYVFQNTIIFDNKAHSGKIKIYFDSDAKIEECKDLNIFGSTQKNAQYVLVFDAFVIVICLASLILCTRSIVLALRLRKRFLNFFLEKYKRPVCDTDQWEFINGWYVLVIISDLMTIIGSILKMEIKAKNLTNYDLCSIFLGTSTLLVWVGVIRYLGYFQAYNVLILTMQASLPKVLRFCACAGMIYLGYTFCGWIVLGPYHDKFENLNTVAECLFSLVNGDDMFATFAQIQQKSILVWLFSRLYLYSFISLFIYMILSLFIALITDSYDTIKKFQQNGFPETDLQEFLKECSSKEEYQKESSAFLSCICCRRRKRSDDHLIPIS

hTRPML3-YFP = biological target: T4, hTRPML3-YFP (Homo sapiens, UniProt Q8TDD5); experiment: Fluo-4 Ca2+ influx assay, HEK293 stably expressing hTRPML3-YFP, activated with ML-SA1; type: cell-based
T4 construct: expressed in transfected cells
Description: To identify inhibitors of TRPML1 and TRPML3, the Spectrum Collection compound library (MS Discoveries; 2000 compounds) and additional 430 bioactive compounds were screened. To this end, fluorometric Ca^2+ influx assays were performed by using the calcium dye Fluo-4/AM (Invitrogen, Thermo Fisher Scientific, Waltham, MA, USA) and a custom-made fluorescence imaging plate reader built into a robotic liquid handling station (Freedom Evo 150, Tecan, Männedorf, Switzerland). All measurements were done in a HEPES buffered solution (HBS), containing 132 mM NaCl, 6 mM KCl, 1 mM MgCl2, 1 mM CaCl2, 5.5 mM D-glucose, 10 mM HEPES, pH 7.4. Screening compounds dissolved in DMSO (10 mM) were prediluted in 150 mM NaCl, 20 mM HEPES, pH 7.4, to a concentration of 200 µM. For primary screens, HEK293 stably expressing plasma membrane-targeted TRPML1 or TRPML3 were trypsinized and resuspended in cell culture medium supplemented with 4 µM Fluo-4/AM. After incubation at 37 °C for 30 min, the cell suspension was briefly centrifuged resuspended in HBS, and dispensed into black pigmented, clear-bottom 384-well microwell plates (Greiner μClear, Frickenhausen, Germany). Plates were placed into the FLIPR and fluorescence signals (excitation 470 nm, emission 515 nm) were recorded with a Zyla 5.5 camera (Andor, Belfast, UK) and the μManager software like previously described. In a first video, compound libraries were successively added to the cells with the Tecan 96-tip multichannel arm to a final concentration of 20 µM to map unspecific effects like autofluorescence or toxicity. In a second step the agonist ML-SA1 was pipetted in each well and fluorescence signals were recorded for 10 min. Analyses were done by calculating fluorescence intensities for each well and background areas with ImageJ (National Institutes of Health, Bethesda, MD, USA). Finally, the background was subtracted and the fluorescence intensities were normalized to initial intensities (F/F0). Concentration response curves were generated by the same procedure but compounds were manually prediluted in 96-well plates containing HBS, now supplemented with 0.1% bovine serum albumin. Here data was fitted to a four-parameter Hill equation to obtain Imin, Imax, IC50), and the Hill coefficient n.

LC3 = experiment: Autophagy assay, LC3 immunoblot in human fibroblasts (Fed/Hbss, with bafilomycin A1); type: cell-based; conditions: Hbss starvation, with BafA1
Description: 5 × 10^4 wild-type human fibroblasts were seeded in a 12-well plate and treated overnight with DMSO or different TRPML1 inhibitors (EDME, PRU-10, PRU-12). The day after, cells were treated for 3 h in full media (Fed) or HBSS supplemented with 10 mM HEPES (nutrient starved) in presence of DMSO or different TRPML1 inhibitors (EDME, PRU-10, PRU-12). For autophagic flux experiments, cells were co-treated with 100 nM of bafilomycin A1 (Sigma).
Total cell lysates were prepared using TRIS HCl 10 mM pH 8.0 and 0.2% SDS supplemented with protein and phosphatase inhibitors (Sigma). Protein concentration was determined using the Bradford method. After SDS–polyacrylamide gel electrophoresis (PAGE) and immunoblotting, the protein recognized by the specific antibody was visualized by chemiluminescence methods (Luminata Crescendo Western HRP substrate, Millipore) using HRP-conjugated anti-rabbit or anti-mouse secondary antibodies (Cell Signalling). Images were acquired using Li-Cor Odyssey Fc Imaging System and densitometric quantification of unsaturated images was performed using ImageJ software (NIH). Uncropped and unprocessed western blot scans are provided as Fig. S1. The following primary antibodies were used: LC3 (Novus Cat. No. NB100-2220, 1:1000 in 5% milk), TFEB (Cell Signaling Cat. No. 4240, 1:1000 in 5% BSA) and β-actin (Santa Cruz Cat. No. Sc-47778, 1: 1000 in 5% BSA).

hTRPML1∆NC-YFP [3] = biological target: T1, hTRPML1∆NC-YFP; conditions: 10 µM compound after 10 µM ML-SA1
Description: Single cell Ca^2+ imaging experiments were performed using Fura-2 as previously described. HEK293 cells stably expressing hTRPML1∆NC-YFP, hTRPML2-YFP, hTPPML3-YFP or hTPC2L11A/L12A-RFP (22, 24) were cultured at 37 °C with 5% of CO2 in Dulbecco’s modified Eagle medium (Thermo Fisher), supplemented with 10% fetal bovine serum, 100 U/mL penicillin, and 0.1 mg/mL streptomycin. Cells were plated onto poly-L-lysine (sigma)-coated glass coverslips and grown for 2–3 days. For Ca^2+ imaging experiments cells were loaded for 1 h at room temperature with Fura-2 AM (4.0 µM) and 0.005% (v/v) pluronic acid (both from Thermo Fisher) in HEPES-buffered solution (HBS) comprising 138 mM NaCl, 6 mM KCl, 2 mM MgCl2, 2 mM CaCl2, 10 mM HEPES, and 5.5 mM D-glucose (adjusted to pH 7.4 with NaOH). After loading, cells were washed with HBS and mounted in an imaging chamber. All recordings were performed in HBS. Ca^2+ imaging was performed using a Leica DMi8 live cell microscope. Fura-2 was excited at 340 nm/380 nm. Emitted fluorescence was captured using 515 nm long-pass filter. Compounds were pre diluted in DMSO and stored as 10 mM stock solutions at − 20 °C, not exceeding three months. Working solutions were prepared directly before using by dilution with HBS.

[4] = TRPML2 IC50, Fluo-4, 5 µM ML-SA1, Table S1
[5] = Fluo-4, 5 µM ML-SA1, Table S1, read-out: TRPML3 IC50

T4 sequence (Q8TDD5 whole entry): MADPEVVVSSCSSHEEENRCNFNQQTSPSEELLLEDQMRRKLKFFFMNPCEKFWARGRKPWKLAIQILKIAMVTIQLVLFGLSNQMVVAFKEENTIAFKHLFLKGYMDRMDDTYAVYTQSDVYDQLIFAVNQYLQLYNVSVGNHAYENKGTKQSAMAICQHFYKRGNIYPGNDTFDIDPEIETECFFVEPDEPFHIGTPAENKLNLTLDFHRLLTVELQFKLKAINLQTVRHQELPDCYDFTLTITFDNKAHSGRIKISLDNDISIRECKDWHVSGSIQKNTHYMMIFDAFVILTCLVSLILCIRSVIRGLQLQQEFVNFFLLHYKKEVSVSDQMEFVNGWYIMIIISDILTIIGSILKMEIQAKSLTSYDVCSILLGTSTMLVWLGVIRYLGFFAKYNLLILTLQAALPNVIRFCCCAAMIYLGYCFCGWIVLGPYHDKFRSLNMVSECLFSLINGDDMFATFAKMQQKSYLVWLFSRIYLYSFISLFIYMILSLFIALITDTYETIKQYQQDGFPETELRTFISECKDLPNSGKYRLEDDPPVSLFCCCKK
T2 sequence (P03372 whole entry): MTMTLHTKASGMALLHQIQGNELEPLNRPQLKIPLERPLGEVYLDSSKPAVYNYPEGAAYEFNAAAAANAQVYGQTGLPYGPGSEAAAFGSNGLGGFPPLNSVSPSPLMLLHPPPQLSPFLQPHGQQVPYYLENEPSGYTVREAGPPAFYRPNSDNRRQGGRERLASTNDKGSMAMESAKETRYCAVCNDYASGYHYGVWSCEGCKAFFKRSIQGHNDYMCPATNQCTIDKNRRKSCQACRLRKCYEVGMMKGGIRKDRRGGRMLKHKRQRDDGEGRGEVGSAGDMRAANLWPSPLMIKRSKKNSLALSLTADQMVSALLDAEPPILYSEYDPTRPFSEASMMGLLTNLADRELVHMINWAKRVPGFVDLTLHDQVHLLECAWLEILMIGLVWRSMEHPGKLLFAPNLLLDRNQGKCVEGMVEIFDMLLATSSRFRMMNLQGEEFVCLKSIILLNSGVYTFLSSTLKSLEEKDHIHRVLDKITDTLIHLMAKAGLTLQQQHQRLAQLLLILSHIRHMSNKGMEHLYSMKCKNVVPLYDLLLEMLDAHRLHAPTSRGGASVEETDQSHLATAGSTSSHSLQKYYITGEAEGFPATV
T1 sequence (Q9GZU1 whole entry): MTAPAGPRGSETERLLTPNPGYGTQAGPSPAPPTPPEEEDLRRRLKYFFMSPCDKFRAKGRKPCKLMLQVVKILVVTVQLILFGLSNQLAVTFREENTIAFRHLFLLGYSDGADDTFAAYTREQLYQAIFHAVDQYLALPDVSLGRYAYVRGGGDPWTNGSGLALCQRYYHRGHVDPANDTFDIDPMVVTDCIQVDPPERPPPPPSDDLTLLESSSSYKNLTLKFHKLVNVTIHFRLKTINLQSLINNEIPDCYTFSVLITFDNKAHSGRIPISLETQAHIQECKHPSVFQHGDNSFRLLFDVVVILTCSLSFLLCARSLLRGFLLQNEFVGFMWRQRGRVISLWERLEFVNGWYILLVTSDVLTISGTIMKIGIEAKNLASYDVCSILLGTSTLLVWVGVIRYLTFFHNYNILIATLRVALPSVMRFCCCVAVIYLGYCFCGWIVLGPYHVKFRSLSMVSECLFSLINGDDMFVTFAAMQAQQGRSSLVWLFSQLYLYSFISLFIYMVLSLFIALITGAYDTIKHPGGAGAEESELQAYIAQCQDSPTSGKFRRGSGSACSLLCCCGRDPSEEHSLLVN

Row | SMILES | TRPML isoform selectivity profile (hTRPML1∆NC-YFP [1]; TRPML1, 2, 3 and TPC2, Fluo-4) | TRPML1:TRPML2 fold selectivity (hTRPML1∆NC-YFP [1]; ratio of Fluo-4 IC50 values) [fold] | TRPML1:TRPML3 fold selectivity (hTRPML1∆NC-YFP [1]; ratio of Fluo-4 IC50 values) [fold] | IC50 (hTRPML1∆NC-YFP [2]) | effect/efficacy at ERα (human ERα) | IC50 (hTRPML2-YFP; [4]) [µM] | IC50 (hTRPML3-YFP; [5]) [µM] | TRPML1 versus TRPML3 selectivity (hTRPML1∆NC-YFP [1]; Fluo-4, TRPML1 vs TRPML3, 5 µM ML-SA1) | concentration showing efficacy on autophagy (LC3) (LC3) [µM] | effect on autophagy (LC3) at 10 nM or 1 µM (LC3) | efficacy in blocking TRPML1, Fura-2 (hTRPML1∆NC-YFP [3]) | activity in concentration-response measurements on TRPML1 (hTRPML1∆NC-YFP [2]; Fluo-4, 5 µM ML-SA1) | IC50 (hTRPML2-YFP; Fluo-4, 5 µM ML-SA1, Table S1, read-out: TRPML2 IC50) [µM] | IC50 (hTRPML3-YFP) [µM]
1 | C[C@]12CC[C@@H]3c4ccc(Oc5ccccc5)cc4CC[C@H]3[C@@H]1CC[C@@H]2O [PRU-8] | further improved selectivity profile compared to EDME; also recorded: very good selectivity profile | 21.28 | 53.68 | 0.72 µM | strong effect | 15.3 | 38.6 |  |  |  |  |  |  | 
2 | C[C@]12CC[C@@H]3c4ccc(O)cc4CC[C@H]3[C@@H]1CC[C@@H]2O [Estradiol, 17β-estradiol] |  | 5.77 |  | 5.3 µM |  | 30.4 | > 50 | stronger inhibitory effects on TRPML1 than on TRPML3 | 10 | no effect |  |  |  | 
3 | COc1ccc2c(c1)CC[C@@H]1[C@@H]2CC[C@]2(C)[C@H](O)CC[C@@H]12 [PRU-2] |  | 2.67 |  | 13.8 µM and 14 µM | relatively low efficacy; also recorded: weakest effects |  |  |  |  |  | exception | only poor activity | 37 | > 50

Reference: paper PMC8050276, “Estradiol analogs attenuate autophagy, cell migration and invasion by direct and selective inhibition of TRPML1, independent of estrogen receptors” (Scientific Reports, 2021)
